Assay results as given in paper PMC6328587 (Nature Communications, 2019).
Read-outs that look alike come from different tables or passages of the source.

What was measured:
p38δ:PROTAC:VHL = target: T1, p38δ:PROTAC:VHL (Homo sapiens, UniProt O15264+P40337); assay: SPR ternary binding, equimolar p38δ:PROTAC injected onto immobilized VHL; settings: for p38δ:PROTAC:VHL t1/2: ternary complex half-life
T1 construct: encoding a region spanning amino acids 1–365; His6 (N); made in house; host or cells: E. coli BL21-CodonPlus(DE3)-RIPL (p38δ); E. coli BL21(DE3) (GST-VBC)
Procedure: SPR experiments were conducted on a Biacore 3000 instrument (GE Healthcare) at room temperature. GST antibody was immobilized through direct amination onto a carboxymethylated dextran surface (CM5) and GST-VBC was captured on the CM5 surface. This prepared surface was equilibrated over 3 h in running buffer (10 mM HEPES buffer pH 7.4, 150 mM NaCl, 0.4 mg mL^−1 BSA, 0.005% P20, 2% DMSO). All compounds were prepared in 100% DMSO stock plates with a top concentration of 500 µM in a 3× serial dilution. Compounds were transferred from the stock plate to the assay plate and diluted into running buffer without DMSO. Equimolar concentration of target protein was added to corresponding compound wells. All compounds were run as a 12-point concentration series with a final assay top concentration of 50 µM to measure p38δ:PROTAC and VHL:PROTAC binding and top concentration of 5 µM to measure p38δ:PROTAC:VHL binding. All compounds were injected for 60 s and allowed to dissociate for 300 s. Data analysis was performed in Scrubber 2 (BioLogic Software). Blanks from reference flow cell containing immobilized GST-VBC were subtracted to correct for noise and data were solvent-corrected against a standard DMSO curve. All reported Kd values represent an average of at least two replicates and were obtained by fitting to a minimum of five concentrations using a 1:1 fitting algorithm.

FLAG-p38δ = target: T2, FLAG-p38δ (Homo sapiens, UniProt O15264); assay: Ubiquitination assay, FLAG-p38δ and HA-Ub in HeLa cells; assay type: cell-based; settings: 1 µM PROTAC, 2 h
T2 construct: expressed in transfected cells; host or cells: HeLa
T2 sequence (O15264 1-365): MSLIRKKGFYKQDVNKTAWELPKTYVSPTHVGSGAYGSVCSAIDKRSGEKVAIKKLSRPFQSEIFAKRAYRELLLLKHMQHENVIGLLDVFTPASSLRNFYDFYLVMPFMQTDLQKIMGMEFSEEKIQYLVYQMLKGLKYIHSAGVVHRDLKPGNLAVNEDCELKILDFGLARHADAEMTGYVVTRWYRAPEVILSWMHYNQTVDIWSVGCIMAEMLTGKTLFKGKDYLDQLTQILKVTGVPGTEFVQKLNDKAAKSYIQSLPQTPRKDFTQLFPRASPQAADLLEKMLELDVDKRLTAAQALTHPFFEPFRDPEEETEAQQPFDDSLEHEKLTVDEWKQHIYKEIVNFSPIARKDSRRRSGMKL
Procedure: HeLa cells (2 × 10^6) were seeded into 10 cm dishes and allowed to adhere overnight. On the following day, cells were transfected with 3 µg pcDNA5-FLAG-p38α or pcDNA5-FLAG-p38δ and 1 µg pRK5-HA-Ubiquitin-WT (Addgene plasmid #17608) in Opti-MEM media using Lipofectamine 2000 (Invitrogen). After 6 h, Opti-MEM media were replaced with DMEM (1 × ) and cells were grown for an additional 24 h. After this time, cells were treated with indicated concentrations of either vehicle (DMSO) or PROTAC for the indicated amount of time at 37 °C. Cells were then placed on ice, rinsed twice with ice-cold 1X PBS and lysed in 500 µL modified 1X RIPA buffer (25 mM Tris-HCl pH 7.6, 150 mM NaCl, 1% NP-40, 1% sodium deoxycholate, 0.1% SDS) containing 5 mM 1,10-phenanthroline monohydrate, 10 mM N-ethylmaleimide, 20 µM PR-619, and 1X protease inhibitor cocktail (Roche). Lysates were spun down at 14,000 × g at 4 °C for 20 min and protein content was measured by Pierce BCA Protein Assay (ThermoFisher Scientific). […] Immunoprecipitated protein was eluted off of the beads by heating at 95 °C for 5 min and the supernatant was run on an SDS-PAGE gel and evaluated for the presence of immunoprecipitated FLAG-tagged proteins (anti-FLAG M2, Sigma #F1804), as well as ubiquitinated FLAG-tagged proteins (anti-HA-tag (6E2), CST #2367). […]

JNK1 = JNK1 degradation, western blot in MDA-MB-231 cells; assay type: cell-based, human; settings: 0.025-2.5 µM
Procedure: […] once with ice-cold PBS (1 × ), followed by lysis in buffer containing 25 mM Tris [pH 7.5], 0.25% sodium deoxycholate, 1% Triton X-100, supplemented with 1X protease inhibitor cocktail (Roche), and phosphatase inhibitors (10 mM NaF, 1 mM Na3VO4, and 20 mM β-glycerophosphate), unless otherwise noted. Lysates were spun at 14,000 × g for 10 min at 4 °C and supernatant was evaluated for protein content using a Pierce BCA Protein Assay (ThermoFisher Scientific). In all experiments, 25–50 μg of protein was loaded onto 10% SDS-PAGE gels or 4–20% Criterion TGX precast gradient gels (Bio-Rad), transferred to nitrocellulose membranes, and probed with the specified antibodies overnight at 4 °C in 1X TBS-Tween (Tris-buffered saline plus 0.02% Tween 20) containing 5% non-fat milk. Immunoblots were visualized using a Bio-Rad ChemiDoc imaging instrument and subsequently processed and quantified using the accompanying Bio-Rad ImageLab software. See Supplementary Figure 8 for uncropped scans of western blots shown in the main text figures.
Supplementary Figure 4 cont.
Supplementary Figure 4. Characterization of M APK fam ily degradation selectivity (related to Figures 1-2). (a) p38 M APK fam ily m em bers (α, β, δ, γ) were aligned using the T-Coffee multiple sequence alignm ent server. […] Note: JNK1 and JNK2 are expressed as two alternatively-spliced form s. […]

[1] = SPR ternary, Replicate 2, read-out: koff
[2] = SPR, ternary, VHL immobilized, read-out: p38δ:PROTAC:VHL koff

T1 sequence (P40337 whole entry, one chain of several, the tested form may be a part): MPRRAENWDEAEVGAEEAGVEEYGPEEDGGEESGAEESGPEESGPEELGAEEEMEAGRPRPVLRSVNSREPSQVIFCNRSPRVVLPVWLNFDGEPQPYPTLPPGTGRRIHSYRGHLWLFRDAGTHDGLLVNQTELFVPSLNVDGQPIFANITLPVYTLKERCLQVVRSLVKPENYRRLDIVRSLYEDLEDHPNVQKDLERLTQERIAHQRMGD
T1 sequence (Q15370 whole entry partner, one chain of several, the tested form may be a part): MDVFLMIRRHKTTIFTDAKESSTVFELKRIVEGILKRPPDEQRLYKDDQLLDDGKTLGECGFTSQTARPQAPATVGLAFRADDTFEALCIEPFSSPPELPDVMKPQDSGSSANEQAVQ
T1 sequence (Q15369 whole entry partner, one chain of several, the tested form may be a part): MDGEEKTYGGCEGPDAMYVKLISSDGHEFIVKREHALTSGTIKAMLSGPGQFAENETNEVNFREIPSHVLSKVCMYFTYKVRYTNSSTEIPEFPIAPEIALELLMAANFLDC

ternary affinity weaker than the SJFδ-induced complex (p38δ:PROTAC:VHL; SPR)	koff (p38δ:PROTAC:VHL; SPR ternary, Replicate 1, read-out: koff)	koff (p38δ:PROTAC:VHL; [1])	p38δ:PROTAC:VHL t1/2 (p38δ:PROTAC:VHL; SPR)	kon (p38δ:PROTAC:VHL; SPR, ternary, VHL immobilized)	koff (p38δ:PROTAC:VHL; [2])	leftward shift of ternary affinity from the VHL:PROTAC binary affinity (p38δ:PROTAC:VHL; SPR)	Kd (p38δ:PROTAC:VHL; SPR, Replicate 1)	Kd (p38δ:PROTAC:VHL; SPR, Replicate 2)	SMILES	ubiquitination of immunoprecipitated FLAG-p38δ (FLAG-p38δ)	JNK1 degradation (JNK1)
~ 3 fold	0.083 s⁻¹	0.082 s⁻¹	8 s	70100 M⁻¹ s⁻¹	0.072 s⁻¹				COc1cc2c(Oc3ccc(NC(=O)C4(C(=O)Nc5ccc(F)cc5)CC4)cc3F)ccnc2cc1OCCCCOCCCCOCC(=O)N[C@H](C(=O)N1C[C@H](O)C[C@H]1C(=O)NCc1ccc(-c2scnc2C)cc1)C(C)(C)C [SJFα]	far less abundant	neither PROTAC degrades
		0.017 s⁻¹	38 s	39600 M⁻¹ s⁻¹	0.018 s⁻¹	~ 8 fold	358 nM	514 nM	COc1cc2c(Oc3ccc(NC(=O)C4(C(=O)Nc5ccc(F)cc5)CC4)cc3F)ccnc2cc1OCCOCCOCCOc1cc(-c2scnc2C)ccc1CNC(=O)[C@@H]1C[C@@H](O)CN1C(=O)[C@H](C(C)C)N1Cc2ccccc2C1=O [SJFδ]	levels of ubiquitination of immunoprecipitated p38δ greater than control cells	neither PROTAC degrades
